Laboratory results reported in patent EP1543832A2, “Use of trans-4[4-(3-chloro-4-methoxy-benzylamino) benzothieno[2,3-d]pyrimidin-2-yl]-cyclohexanecarboxylic acid in the treatment of extrapyramidal movement disorders” (MERCK PATENT GmbH, priority 2003, dated 2005).

Experiments:
[1] = tested on: striatonigral degeneration approach in the rat; assay: Striatonigral degeneration model (6-hydroxydopamine plus quinolinic acid), turning behavior; assay type: in vivo; details: automated recorder
Source text: Another more recent animal model is the striatonigral degeneration approach in the rat according to G.K. Wenning et al., J. Neural Transm. Suppl., 1999; 55: 103-113. Rats receive an unilateral injection of 6-hydroxydopamine into the left medial forebrain bundle followed by an injection of quinolinic acid into the ipsilateral striatum inducing nigrostriatal degeneration. The degeneration results in turning behavior to a challenge with dopaminomimetics such as apomorphine or amphetamine. Turning behavior is measured by an automated recorder.

catalepsy = assay: Ability of a drug to induce catalepsy (extrapyramidal motor side effects); assay type: in vivo, rat; details: measured in e.g. rodents by the ability of a drug to induce catalepsy
Description: (§1) Extrapyramidal motor side effects in e.g. rodents are measured by the ability of a drug to induce catalepsy. Catalepsy is defined as a state where an animal continues to remain in an unnormal (nonphysiological 'uncomfortable') posture for a long time (e.g.: M.E. Stanley and S.D. Glick, Neuropharmacology, 1996; 15: 393-394; C.J.E. Niemegeers and P. Janssen, Life Sci., 1979, […]). For example, if a hindpaw of a rat is placed on an elevated level, e.g. a platform elevated 3 cm above ground level, a normal rat immediately withdraws the hindpaw from the platform to the ground level. A cataleptic rat remains in this unnatural posture even for minutes.

[2] = tested on: catalepsy induced by conventional antidopaminergic drugs; assay: Catalepsy induced by conventional antidopaminergic drugs such as haloperidol; details: rat, in vivo
Description: as §1

[3] = tested on: systemic 3-nitropropionic acid (3-NP) model in rats; assay: Systemic 3-nitropropionic acid (3-NP) model, nocturnal activity; assay type: in vivo
Description: A typical animal model is the systemic 3-nitropropionic acid (3-NP) model in rats according to C.V. Borlongan et al., Brain Res., 1995; 697: 254-257. Rats are treated with injections of the selective striatal neurotoxin 3-NP i.p. every fourth day (C.V. Borlongan et al., Brain Res. Protocols, 1997; 1: 253-257). After two injections of 3-NP, rats display nocturnal hyperactivity reflecting symptoms of early Huntington's disease, whereas rats treated with four injections of 3-NP display nocturnal akinesia (hypoactivity) reflecting symptoms of late Huntington's disease. Nocturnal activity is automatically measured in conventional acitivity cages by infrared beams. Trans-4-[4-(3-chloro-4-methoxybenzylamino)-benzothieno-[2,3-d]pyrimidin-2-yl]cyclohexanecarboxylic acid or a physiologically acceptable salt thereof reduce both the nocturnal hyperactivity and akinesia.

[4] = tested on: Parkinsonian cynomolgus monkey; assay: Adverse effects of long-term l-dopa treatment in the MPTP Parkinsonian cynomolgus monkey; assay type: in vivo; details: MPTP monkeys chronically treated with l-dopa
Description: Treatment of adverse effects of conventional anti-Parkinsonian drugs as defined above are determined in a modification of the animal model of the Parkinsonian cynomolgus monkey according to P.J. Blanchet et al., Exp. Neurology 1998; 153: 214-222. Monkeys render parkinsonian by repeated injections of 1-methyl-4-phenyl-1,2,3,6-tetrahydropyridine (MPTP). The Parkinsonian monkeys are chronically treated with the standard I-dopa therapy according to P.J. Blanchet et al., Mov. Disord., 1998; 13: 798-802. Longterm treatment with I-dopa induces extrapyramidal motor side effects and psychotic states which are both qualitatively and quantitatively, assessed by the Abnormal Involuntary Movement Scale (P.J. Blanchet et al., Mov. Disord. 1998; 13: 798-802) for different body parts (face, neck, trunk, each limb) and by rating for psychotic states by observing the monkey's attention, reactivity and mobility. Trans-4-[4-(3-chloro-4-methoxybenzylamino)-benzothieno-[2,3-d]pyrimidin-2-yl]cyclohexane-carboxylic acid reduced overall choreiform dyskinesias and dystonic dyskinesias as well as psychotic states.

[5] = tested on: cervical dystonia (spasmodic torticollis); assay: Double-blind placebo-controlled study in cervical dystonia (TWSTRS); assay type: in vivo, patients; details: 2.5 mg to 20 mg b.i.d. versus placebo
Weaver mutant mouse = assay: Weaver mutant mouse, locomotor activity in activity cages; assay type: in vivo
Source text: (§2) Typical genetic models in mutant animals are the Campus Syndrome in the Pietrain pig according to A. Richter et al. (Exp. Neurology, 1995; 134: 205-213) or the Weaver mutant mouse according to J.R. Simon and B. Ghetti (Mol. Neurobiol., 1994; 9: 183-189). In the Campus Syndrome model, these mutant pigs show a high-frequency tremor when standing and during locomotion, but not while lying at rest. Assessment of tremor is made by accelerometric recording. In the Weaver mutant mouse, degenerative cerebellar atrophy is fould in association with tremor, gait instability, and toppling over the sides after a few steps.
(§3) Trans-4-[4-(3-chloro-4-methoxybenzylamino)-benzothieno-[2,3-d]pyrimidin-2-yl]cyclohexanecarboxylic acid or a physiologically acceptable salt thereof improve the Campus Syndrome in the Pietrain pig, i.e. reduce disabling tremor when standing and during locomotion, and enhance locomotor activity in the Weaver mutant mouse.

[6] = tested on: Campus Syndrome in the Pietrain pig; assay: Campus Syndrome tremor model, accelerometric recording; assay type: in vivo
Source text: as §2, §3

[7] = tested on: oxotremorine-induced tremor; assay: Oxotremorine-induced tremor, rating scale; assay type: in vivo
Description: A typical animal model for drug-induced tremors is the oxotremorine-induced tremor (e.g. H. Hallberg and O. Almgren, Acta Physiol. Scand., 1987; 129: 407-13; J.G. Clement and W.R. Dyck, J. Pharmacol. Meth., 1989; 22: 25-36). Oxotremorine induces tremor which is measured by a rating scale. Trans-4-[4-(3-chloro-4-methoxybenzylamino)-benzothieno-[2,3-d]pyrimidin-2-yl]cyclohexanecarboxylic acid or a physiologically acceptable salt thereof inhibit oxotremorine-induced tremors.

[8] = tested on: reserpinized rat or mouse; assay: Reserpine-induced akinesia in activity meters; assay type: in vivo; details: 24 h after reserpine
Description: A typical animal model is the reserpinized rat or mouse (e.g. M.S. Starr and B.S. Starr, J. Neural Transm. - Park. Dis. Dement. Sect., 1994; 7: 133-142; M. Gossel et al., J. Neural Transm. - Park. Dis. Dement. Sect., 1995; 10: 27-39; N.R. Hughes et al., Mov. Disord., 1998; 13: 228-233). Reserpine is a potent depleter of monoamines and produces nearly complete akinesia in both species. Prominent 24 h after application, the distance travelled and the time active is nearly zero as measured in conventional activity meters.

posthypoxic myoclonus = assay: Posthypoxic myoclonus after cardiac arrest; assay type: in vivo; details: rats resuscitated after cardiac arrest for 8 minutes
Description: A typical animal model for myoclonus is myoclonus induced by an acute hypoxic episode according to D.D. Truong et al., Mov. Dsiord., 1994; 9: 201-206). In this model of posthypoxic myoclonus, rats undergo a cardiac arrest for 8 minutes and are resuscitated thereafter. Myoclonic jerks occur spontaneously but can be provoked by auditory stimulation, too, worsening over the days following cardiac arrest.

[9] = Abnormal Involuntary Movement Scale

COc1ccc(CNc2nc([C@H]3CC[C@H](C(=O)O)CC3)nc3sc4ccccc4c23)cc1Cl [trans-4-[4-(3-chloro-4-methoxybenzylamino)-benzothieno-[2,3-d]pyrimidin-2-yl]cyclohexanecarboxylic acid]
Turning behavior induced by apomorphine or amphetamine [1]: dose-dependently antagonized | liability to induce extrapyramidal side effects (catalepsy): extremely low liability to induce extrapyramidal side effects | prevention of catalepsy induced by conventional antidopaminergic drugs [2]: able to prevent catalepsy | reversal of already existing catalepsy induced by conventional antidopaminergic drugs such as haloperidol [2]: reverses already existing catalepsy | nocturnal akinesia ([3]; after four injections of 3-NP (late Huntington's disease)): reduce | nocturnal hyperactivity ([3]; after two injections of 3-NP (early Huntington's disease)): reduce | dystonic dyskinesias [4, 9]: reduced | overall choreiform dyskinesias [4, 9]: reduced | psychotic states ([4]; rating of attention, reactivity and mobility): reduced | TWSTRS scores [5]: significant improvement | locomotor activity (Weaver mutant mouse): enhance | disabling tremor when standing and during locomotion [6]: reduce | oxotremorine-induced tremors [7]: inhibit | akinesia [8]: dose-dependently reduced | distance travelled and time active ([8]; conventional activity meters): restored distance travelled and time active to about the level of normal animals | number of spontaneous and autitory-evoked myoclonic jerks (posthypoxic myoclonus): dose-dependently reduce
